Measurements taken from article PMC8524670 (Pharmacology Research & Perspectives, 2021).

What was measured:
[1] = molecular target: CYP3A (Homo sapiens, UniProt P08684); assay: CYP reversible inhibition in HLMs; settings: for R1: DDI basic model, hepatic; for R1 , gut: intestinal CYP3A, basic model; for Ag / Ah: static model term; for Ag: gut inhibition; for Ah: liver inhibition
[2] = system: CYP2C19; settings: coadministration of zanubrutinib; cited from earlier work
[3] = molecular target: T1, OAT3 (Homo sapiens, UniProt Q8TCC7); assay: SLC transportation assay in HEK293 cells; assay type: in vitro ADME; settings: uptake ratios <2 at 0.1, 0.3, 5 µM
T1 sequence (Q8TCC7 1-542): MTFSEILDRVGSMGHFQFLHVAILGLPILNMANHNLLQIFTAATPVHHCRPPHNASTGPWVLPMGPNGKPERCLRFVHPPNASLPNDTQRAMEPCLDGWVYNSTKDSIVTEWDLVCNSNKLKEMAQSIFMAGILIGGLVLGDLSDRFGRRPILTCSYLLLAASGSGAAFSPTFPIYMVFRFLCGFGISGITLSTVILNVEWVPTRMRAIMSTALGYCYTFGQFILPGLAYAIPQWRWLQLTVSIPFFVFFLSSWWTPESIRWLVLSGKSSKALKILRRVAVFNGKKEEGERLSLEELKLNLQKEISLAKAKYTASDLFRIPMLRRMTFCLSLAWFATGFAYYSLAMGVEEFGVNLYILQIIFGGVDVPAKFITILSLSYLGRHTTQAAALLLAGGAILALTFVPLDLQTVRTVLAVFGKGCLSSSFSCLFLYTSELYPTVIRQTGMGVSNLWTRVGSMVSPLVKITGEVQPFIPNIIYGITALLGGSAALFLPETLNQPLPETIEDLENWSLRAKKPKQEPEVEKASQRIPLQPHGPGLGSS

[4] = In vitro metabolism in liver microsomes; assay type: in vitro ADME; settings: 10 μM, 60-min incubation with NADPH and UDPGA; 11 metabolites (M1–M11)
[5] = molecular target: T2, OATP1B1 (Homo sapiens, UniProt Q9Y6L6); assay: SLC transportation assay in HEK293 cells; assay type: in vitro ADME; settings: uptake ratios <2 at 0.1, 0.3, 5 µM
T2 sequence (Q9Y6L6 1-691): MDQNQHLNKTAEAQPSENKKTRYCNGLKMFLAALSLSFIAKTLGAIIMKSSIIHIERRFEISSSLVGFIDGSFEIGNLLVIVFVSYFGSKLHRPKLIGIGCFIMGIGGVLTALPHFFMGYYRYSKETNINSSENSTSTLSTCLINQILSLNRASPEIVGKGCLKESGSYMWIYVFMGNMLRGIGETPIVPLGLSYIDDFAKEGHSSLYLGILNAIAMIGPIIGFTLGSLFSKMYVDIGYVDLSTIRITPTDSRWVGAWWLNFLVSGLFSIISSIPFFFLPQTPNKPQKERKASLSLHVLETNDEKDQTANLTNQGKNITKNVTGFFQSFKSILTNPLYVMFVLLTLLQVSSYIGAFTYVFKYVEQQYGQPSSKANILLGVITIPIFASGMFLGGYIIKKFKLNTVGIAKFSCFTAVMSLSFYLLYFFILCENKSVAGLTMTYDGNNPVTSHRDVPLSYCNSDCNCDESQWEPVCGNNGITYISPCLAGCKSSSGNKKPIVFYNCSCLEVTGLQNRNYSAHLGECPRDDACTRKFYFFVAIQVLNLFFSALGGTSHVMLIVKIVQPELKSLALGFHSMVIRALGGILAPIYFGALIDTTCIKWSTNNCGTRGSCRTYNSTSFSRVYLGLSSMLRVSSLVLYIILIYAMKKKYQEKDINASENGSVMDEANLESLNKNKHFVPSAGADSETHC

[6] = system: CYP2C9; assay: CYP induction in human hepatocytes; assay type: in vitro ADME
[7] = molecular target: T3, OAT1 (Homo sapiens, UniProt Q4U2R8); assay: SLC inhibition assay in HEK293 cells
T3 sequence (Q4U2R8 1-563): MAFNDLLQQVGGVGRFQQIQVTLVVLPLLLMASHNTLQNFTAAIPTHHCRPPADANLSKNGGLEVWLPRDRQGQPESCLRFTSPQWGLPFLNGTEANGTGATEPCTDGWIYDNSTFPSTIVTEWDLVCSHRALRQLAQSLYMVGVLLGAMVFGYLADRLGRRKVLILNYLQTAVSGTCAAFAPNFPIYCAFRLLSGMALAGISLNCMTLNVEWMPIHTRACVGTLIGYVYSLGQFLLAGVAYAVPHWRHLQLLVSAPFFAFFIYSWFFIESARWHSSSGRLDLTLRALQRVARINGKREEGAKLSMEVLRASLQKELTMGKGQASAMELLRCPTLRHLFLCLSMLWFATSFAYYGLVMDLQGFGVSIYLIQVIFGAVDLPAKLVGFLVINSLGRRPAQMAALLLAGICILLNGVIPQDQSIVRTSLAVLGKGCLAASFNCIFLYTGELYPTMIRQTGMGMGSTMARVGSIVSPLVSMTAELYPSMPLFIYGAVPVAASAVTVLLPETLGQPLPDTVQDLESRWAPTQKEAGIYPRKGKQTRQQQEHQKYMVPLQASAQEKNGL

[8] = system: CYP3A4
[9] = molecular target: P-gp (Homo sapiens, UniProt P08183); assay: P-gp inhibition in Caco-2 cells; assay type: in vitro ADME; settings: up to 10 μM
[10] = DDI basic model value for induction
[11] = static model term, induction in liver

Chain of CYP3A (P08684 2-503): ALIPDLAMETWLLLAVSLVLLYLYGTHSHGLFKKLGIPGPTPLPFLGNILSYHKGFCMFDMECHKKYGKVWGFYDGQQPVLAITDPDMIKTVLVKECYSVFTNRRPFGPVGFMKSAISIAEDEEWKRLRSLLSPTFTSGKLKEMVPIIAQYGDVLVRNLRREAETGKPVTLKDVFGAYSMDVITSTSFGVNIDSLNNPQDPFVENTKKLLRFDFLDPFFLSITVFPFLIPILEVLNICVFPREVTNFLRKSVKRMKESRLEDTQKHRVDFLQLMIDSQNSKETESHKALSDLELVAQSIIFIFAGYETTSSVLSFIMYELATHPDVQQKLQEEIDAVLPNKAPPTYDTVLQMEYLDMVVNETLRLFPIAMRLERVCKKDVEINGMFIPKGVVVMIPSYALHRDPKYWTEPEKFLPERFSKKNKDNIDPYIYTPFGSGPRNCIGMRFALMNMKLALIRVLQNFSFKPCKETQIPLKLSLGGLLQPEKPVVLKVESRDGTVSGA
Chain of P-gp (P08183 whole entry): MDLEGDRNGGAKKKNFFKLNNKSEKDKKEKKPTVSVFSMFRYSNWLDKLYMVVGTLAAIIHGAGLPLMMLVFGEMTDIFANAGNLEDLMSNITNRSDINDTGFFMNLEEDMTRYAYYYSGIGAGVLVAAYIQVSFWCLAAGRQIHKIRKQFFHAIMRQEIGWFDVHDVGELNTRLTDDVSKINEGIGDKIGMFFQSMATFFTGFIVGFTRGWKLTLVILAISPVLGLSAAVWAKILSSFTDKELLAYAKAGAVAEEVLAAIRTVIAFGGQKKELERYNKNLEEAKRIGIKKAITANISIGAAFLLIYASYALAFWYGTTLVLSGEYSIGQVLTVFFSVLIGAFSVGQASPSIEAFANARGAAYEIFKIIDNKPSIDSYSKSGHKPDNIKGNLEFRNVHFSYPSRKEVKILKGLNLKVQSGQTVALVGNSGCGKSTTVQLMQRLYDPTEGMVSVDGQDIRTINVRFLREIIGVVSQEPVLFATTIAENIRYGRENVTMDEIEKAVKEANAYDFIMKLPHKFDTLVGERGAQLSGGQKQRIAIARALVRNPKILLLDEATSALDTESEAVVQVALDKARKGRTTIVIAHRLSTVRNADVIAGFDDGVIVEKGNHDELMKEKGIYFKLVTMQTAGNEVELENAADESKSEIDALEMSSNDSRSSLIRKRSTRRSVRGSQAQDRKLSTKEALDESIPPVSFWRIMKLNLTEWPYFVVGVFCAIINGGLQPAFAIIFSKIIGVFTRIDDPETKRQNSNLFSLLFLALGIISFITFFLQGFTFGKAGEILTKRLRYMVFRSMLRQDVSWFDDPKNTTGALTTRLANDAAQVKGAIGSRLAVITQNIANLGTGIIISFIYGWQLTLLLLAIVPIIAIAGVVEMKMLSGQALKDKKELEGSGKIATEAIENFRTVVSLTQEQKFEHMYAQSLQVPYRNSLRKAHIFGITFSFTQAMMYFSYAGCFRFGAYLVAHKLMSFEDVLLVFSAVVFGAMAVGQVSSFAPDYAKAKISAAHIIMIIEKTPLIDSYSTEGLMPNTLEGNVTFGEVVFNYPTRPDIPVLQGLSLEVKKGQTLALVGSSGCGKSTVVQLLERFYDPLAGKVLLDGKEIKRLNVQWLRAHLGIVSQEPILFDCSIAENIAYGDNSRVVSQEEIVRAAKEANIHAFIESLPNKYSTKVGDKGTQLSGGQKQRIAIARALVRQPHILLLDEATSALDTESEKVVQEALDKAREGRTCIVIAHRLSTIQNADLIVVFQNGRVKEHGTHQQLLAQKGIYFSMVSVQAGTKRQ

SMILES: C=CC(=O)N1CCC([C@@H]2CCNc3c(C(N)=O)c(-c4ccc(Oc5ccccc5)cc4)nn32)CC1 [zanubrutinib]
- R1 ([1]; midazolam): 1.00
- R1 , gut ([1]; midazolam): 241
- Ag ([1]; midazolam): 0.45
- Ah ([1]; midazolam): 0.99
- R1 ([1]; testosterone): 1.00
- R1 , gut ([1]; testosterone): 58
- Ag ([1]; testosterone): 0.77
- Ah ([1]; testosterone): 1.00
- Reduction of AUC of CYP2C19 probe omeprazole [2]: 36.5%
- Substrate status [3]: unlikely to be a substrate
- Metabolism in liver microsomes [4]: extensively metabolized
- Substrate status [5]: unlikely to be a substrate
- Inhibition of uptake activity ([7]; 0.05–5 µM): not inhibited
- activity at 0.05 µM ([7]; human): 103 ± 5.6%
- activity at 0.2 µM ([7]; human): 106 ± 7.8%
- activity at 1 µM ([7]; human): 109 ± 3.9%
- activity at 5 µM ([7]; human): 109 ± 3.3%
- R 3 [8, 10]: 0.23
- Cg ([8]; static model term, induction in gut): 14.6
- Ch [8, 11]: 1.77
- P-gp inhibitor status [9]: not a significant inhibitor of P‐gp
